Literature values as cited in PMC9762682, “Tocotrienols: Exciting Biological and Pharmacological Properties of Tocotrienols and Naturally Occurring Compounds, Part II” (Annals of clinical case reports, 2022).
Where two headings read alike, the source gives them in different places. Marks after values point to notes of the source that are not given here.

How the values were obtained:
Melanoma cells = tested on: Melanoma cells; set-up: method as in PMID 29606130
T-cells (Jurkat) = tested on: T-cells (Jurkat); set-up: method as in PMID 29606130; value at effective dose: unit not given here
Hela cells = tested on: Hela cells; set-up: method as in PMID 29606130; value at effective dose: unit not given here; conditions: for effective dose / percentage of control at effective dose / value at effective dose: 48 h;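 on IC50: anti-proliferation of cancer cells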
Lung cancer cells = tested on: Lung cancer cells; set-up: method as in PMID 29606130; value at effective dose: unit not given here
Liver cancer cells = tested on: Liver cancer cells; set-up: method as in PMID 29606130; value at effective dose: unit not given here; conditions: for effective dose / percentage of control at effective dose / value at effective dose: 48 h
Breast cancer cells = tested on: Breast cancer cells; set-up: method as in PMID 29606130; value at effective dose: unit not given here;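 on IC50: anti-proliferation of cancer cells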
B-Lymphocyte cells = tested on: B-Lymphocyte cells; set-up: method as in PMID 29606130; value at effective dose: unit not given here;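 on IC50: anti-proliferation of cancer cells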
Prostate cancer cells = tested on: Prostate cancer cells; set-up: method as in PMID 29606130; value at effective dose: scale not given here; conditions: for effective dose / percentage of control at effective dose / value at effective dose: 48 h;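 on IC50: anti-proliferation of cancer cells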
Pancreas cancer cells = tested on: Pancreas cancer cells; set-up: method as in PMID 29606130; value at effective dose: unit not given here; conditions: for effective dose / percentage of control at effective dose / value at effective dose: 48 h
[1] = set-up: method as in ref 14 = [14]; PMID 27493840; doi:10.4172/2155-9880.1000434; 14. Qureshi AA , Khan DA , Saleem S , Silswal N , Trias AM , Tan B , Pharmacokinetics and bioavailability of Annatto δ-tocotrienol in healthy fed subjects . J Clin Exp Cardiol . 2015; 6 : 11 . 10.417; conditions: for Elimination of Half-life time (t1/2) / Elimination rate constant (ke) / Plasma Peak Concentration (Cmax) / Time to achieve plasma peak (Tmax): healthy fed subjects
[2] = set-up: method as in ref 16 = [16]; PMID 27493840; doi:10.4172/2155-9880.1000434; 16. Qureshi AA , Khan DA , Silswal N , Saleem S , Qureshi N . Evaluation of pharmacokinetics and bioavailability of higher doses of δ-tocotrienol in healthy fed humans . J Clin Exp Cardiol . 2016; 7
[3] = plasma tocol after single 125 mg δ-tocotrienol dose
[4] = plasma tocol after single 250 mg δ-tocotrienol dose
[5] = plasma tocol after single 500 mg δ-tocotrienol dose
[6] = plasma tocol after single dose 750 mg δ-tocotrienol
[7] = plasma tocol after single dose 1000 mg δ-tocotrienol

Structure (SMILES): C[C@@H]1C[C@H]2[C@@H]3CCC4=CC(=O)C=C[C@]4(C)[C@@]3(F)[C@@H](O)C[C@]2(C)[C@@]1(O)C(=O)CO [Dexamethasone]
- effective dose (Melanoma cells): 40 µM
- percentage of control at effective dose (Melanoma cells): 74%
- effective dose (T-cells (Jurkat)): 40 µM
- percentage of control at effective dose (T-cells (Jurkat)): 71%
- value at effective dose (T-cells (Jurkat)): 282.0 ± 21.7
- IC50 (Hela cells): 20 µM
- percentage of control at IC50 dose (Hela cells): 54%
- effective dose (Hela cells): 80 µM
- percentage of control at effective dose (Hela cells): 53%
- value at effective dose (Hela cells): 18.0 ± 4.0
- IC50 (Lung cancer cells): 2.5 µM
- effective dose (Lung cancer cells): 20 µM
- percentage of control at IC50 dose (Lung cancer cells): 47%
- percentage of control at effective dose (Lung cancer cells): 76%
- value at effective dose (Lung cancer cells): 16.7 ± 2.1
- effective dose (Liver cancer cells): 80 µM
- percentage of control at effective dose (Liver cancer cells): 93%
- value at effective dose (Liver cancer cells): 67.3 ± 4.0
- effective dose (Breast cancer cells): 80 µM
- percentage of control at effective dose (Breast cancer cells): 85%
- value at effective dose (Breast cancer cells): 15.7 ± 3.1
- IC50 (B-Lymphocyte cells): 5 µM
- effective dose (B-Lymphocyte cells): 10 µM
- percentage of control at IC50 dose (B-Lymphocyte cells): 45%
- percentage of control at effective dose (B-Lymphocyte cells): 41%
- value at effective dose (B-Lymphocyte cells): 61.0 ± 3.6
- IC50 (Prostate cancer cells): 2500 nM
- percentage of control at IC50 dose (Prostate cancer cells): 45%
- effective dose (Prostate cancer cells): 20 µM
- percentage of control at effective dose (Prostate cancer cells): 32%
- value at effective dose (Prostate cancer cells): 16.7 ± 1.5
- effective dose (Pancreas cancer cells): 20 µM
- percentage of control at effective dose (Pancreas cancer cells): 73%
- value at effective dose (Pancreas cancer cells): 34.7 ± 4.0

Structure (SMILES): C=C(NC(=O)C(=C)NC(=O)c1csc(C2=N[C@@H]3c4csc(n4)[C@H]4NC(=O)c5csc(n5)[C@H]([C@](C)(O)[C@@H](C)O)NC(=O)[C@H]5CSC(=N5)/C(=C/C)NC(=O)[C@H]([C@@H](C)O)NC(=O)c5csc(n5)[C@]3(CC2)NC(=O)[C@H](C)NC(=O)C(=C)NC(=O)[C@H](C)NC(=O)[C@H]([C@@H](C)CC)N[C@@H]2C=Cc3c([C@H](C)O)cc(nc3[C@H]2O)C(=O)O[C@@H]4C)n1)C(N)=O [Thiostrepton]
- effective dose (Melanoma cells): 5 µM
- percentage of control at IC50 dose (Melanoma cells): 34%
- percentage of control at effective dose (Melanoma cells): 13%
- effective dose (T-cells (Jurkat)): 2.5 µM
- percentage of control at IC50 dose (T-cells (Jurkat)): 5%
- percentage of control at effective dose (T-cells (Jurkat)): 5%
- value at effective dose (T-cells (Jurkat)): 21.3 ± 2.1
- IC50 (Hela cells): 10 µM
- percentage of control at IC50 dose (Hela cells): 24%
- effective dose (Hela cells): 40 µM
- percentage of control at effective dose (Hela cells): 16%
- value at effective dose (Hela cells): 8.7 ± 1.5
- IC50 (Lung cancer cells): 5 µM
- effective dose (Lung cancer cells): 5 µM
- percentage of control at IC50 dose (Lung cancer cells): 48%
- percentage of control at effective dose (Lung cancer cells): 28%
- value at effective dose (Lung cancer cells): 7.0 ± 2.0
- IC50 (Liver cancer cells): 2500 nM
- percentage of control at IC50 dose (Liver cancer cells): 53%
- effective dose (Liver cancer cells): 10 µM
- percentage of control at effective dose (Liver cancer cells): 8%
- value at effective dose (Liver cancer cells): 6.7 ± 2.2
- IC50 (Breast cancer cells): 20 µM
- effective dose (Breast cancer cells): 10 µM
- percentage of control at IC50 dose (Breast cancer cells): 16%
- percentage of control at effective dose (Breast cancer cells): 29%
- value at effective dose (Breast cancer cells): 6.7 ± 0.6
- effective dose (B-Lymphocyte cells): 2.5 µM
- percentage of control at IC50 dose (B-Lymphocyte cells): 23%
- percentage of control at effective dose (B-Lymphocyte cells): 23%
- value at effective dose (B-Lymphocyte cells): 15.7 ± 4.0
- IC50 (Prostate cancer cells): 2500 nM
- percentage of control at IC50 dose (Prostate cancer cells): 53%
- effective dose (Prostate cancer cells): 5 µM
- percentage of control at effective dose (Prostate cancer cells): 19%
- value at effective dose (Prostate cancer cells): 7.0 ± 1.7
- IC50 (Pancreas cancer cells): 5 µM
- percentage of control at IC50 dose (Pancreas cancer cells): 29%
- effective dose (Pancreas cancer cells): 10 µM
- percentage of control at effective dose (Pancreas cancer cells): 16%
- value at effective dose (Pancreas cancer cells): 7.7 ± 0.6

Structure (SMILES): CC(C)=CCC/C(C)=C/CC/C(C)=C/CC[C@]1(C)CCc2cc(O)c(C)c(C)c2O1 [γ-Tocotrienol]
- time of appearance in the plasma ([1]; after δ-tocotrienol administration to well-fed subjects): > 2 h
- Elimination of Half-life time (t1/2) [1, 3]: 3.82 ± 0.99^a h
- Elimination rate constant (ke) [1, 3]: 0.113 ± 0.026^a h-1
- Plasma Peak Concentration (Cmax) [1, 3]: 281.34 ± 21.22^a ng/mL
- Time to achieve plasma peak (Tmax) [1, 3]: 3.00 h
- Elimination rate constant (ke) [1, 4]: 0.133 ± 0.037^a h-1
- Time to achieve plasma peak (Tmax) [1, 4]: 3.00 h
- Elimination of Half-life time (t1/2) [1, 5]: 2.25 ± 0.32^c h
- Elimination rate constant (ke) [1, 5]: 0.097 ± 0.021^b h-1
- Plasma Peak Concentration (Cmax) [1, 5]: 1224.64 ± 61.28^c ng/mL
- Time to achieve plasma peak (Tmax) [1, 5]: 3.55 ± 0.52 h
- plasma tocol level ([2]; 0 Hr., single dose 750 mg δ-tocotrienol): 795 ± 19 ng/mL
- plasma tocol level ([2]; 0 Hr., single dose 1000 mg δ-tocotrienol): 843 ± 13 ng/mL
- plasma tocol level ([2]; 1 hr., single dose 750 mg δ-tocotrienol): 1035 ± 10 ng/mL
- plasma tocol level ([2]; 1 hr., single dose 1000 mg δ-tocotrienol): 1065 ± 7 ng/mL
- plasma tocol level ([2]; 2 hr., single dose 750 mg δ-tocotrienol): 1183 ± 16 ng/mL
- plasma tocol level ([2]; 2 hr., single dose 1000 mg δ-tocotrienol): 1251 ± 32 ng/mL
- plasma tocol level ([2]; 4 hr., single dose 750 mg δ-tocotrienol): 1352 ± 23 ng/mL
- plasma tocol level ([2]; 4 hr., single dose 1000 mg δ-tocotrienol): 1387 ± 10 ng/mL
- plasma tocol level ([2]; 6 hr., single dose 750 mg δ-tocotrienol): 361 ± 74 ng/mL
- plasma tocol level ([2]; 6 hr., single dose 1000 mg δ-tocotrienol): 484 ± 17 ng/mL
- plasma tocol level ([2]; 8 hr., single dose 750 mg δ-tocotrienol): 329 ± 17 ng/mL
- plasma tocol level ([2]; 8 hr., single dose 1000 mg δ-tocotrienol): 374 ± 27 ng/mL
- Area Under the Curve-t0 - ∞ (AUC0-∞) [2, 6]: 7895.14 ± 73.43^b ng/ml
- Elimination of Half-life time (t1/2) [2, 6]: 1.96 ± 0.06^b h
- Elimination rate constant (ke) [2, 6]: 0.353 ± 0.125^a h-1
- Peak Plasma Concentration (Cmax) [2, 6]: 1352.41 ± 28.14^b ng/ml
- Time to achieve plasma peak (Tmax) [2, 6]: 4.00^a h
- Area Under the Curve-t0 - ∞ (AUC0-∞) [2, 7]: 8626.41 ± 277.17^b ng/ml
- Elimination of Half-life time (t1/2) [2, 7]: 2.12 ± 0.14^b h
- Elimination rate constant (ke) [2, 7]: 0.328 ± 0.286^a h-1
- Time to achieve plasma peak (Tmax) [2, 7]: 4.00^a h
- Total tocols (sum of 0-8 h) ([2]; single dose 750 mg δ-tocotrienol): 5055 ng/mL
- Total tocols (sum of 0-8 h) ([2]; single dose 1000 mg δ-tocotrienol): 5404 ng/mL
